From PubChem BioAssay (NCI)
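The concentration for 50% growth inhibition is given as GI50. At the TGI there is no net growth.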

What was measured:
Test in all cases: NCI tumour cell line growth inhibition, 384-well format
786-0 renal = test system: 786-0 renal
A498 renal = test system: A498 renal
A549 NSCLC = test system: A549 NSCLC
ACHN renal = test system: ACHN renal
BT-549 breast = test system: BT-549 breast
CAKI-1 renal = test system: CAKI-1 renal
CCRF-CEM leukemia = test system: CCRF-CEM leukemia
COLO 205 colon = test system: COLO 205 colon
DU-145 prostate = test system: DU-145 prostate
EKVX NSCLC = test system: EKVX NSCLC
HCC-2998 colon = test system: HCC-2998 colon
HCT-116 colon = test system: HCT-116 colon
HCT-15 colon = test system: HCT-15 colon
HL-60(TB) leukemia = test system: HL-60(TB) leukemia
HOP-62 NSCLC = test system: HOP-62 NSCLC
HOP-92 NSCLC = test system: HOP-92 NSCLC
HS 578T breast = test system: HS 578T breast
HT29 colon = test system: HT29 colon
IGROV1 ovarian = test system: IGROV1 ovarian
K-562 leukemia = test system: K-562 leukemia
KM12 colon = test system: KM12 colon
LOX IMVI melanoma = test system: LOX IMVI melanoma
M14 melanoma = test system: M14 melanoma
MALME-3M melanoma = test system: MALME-3M melanoma
MCF7 breast = test system: MCF7 breast
MDA-MB-231 breast = test system: MDA-MB-231 breast
MDA-MB-435 melanoma = test system: MDA-MB-435 melanoma
MDA-MB-468 breast = test system: MDA-MB-468 breast
MOLT-4 leukemia = test system: MOLT-4 leukemia
NCI-H226 lung = test system: NCI-H226 lung
NCI-H23 lung = test system: NCI-H23 lung
NCI-H322M lung = test system: NCI-H322M lung
NCI-H460 NSCLC = test system: NCI-H460 NSCLC
NCI-H522 lung = test system: NCI-H522 lung
NCI/ADR-RES ovarian = test system: NCI/ADR-RES ovarian
OVCAR-3 ovarian = test system: OVCAR-3 ovarian
OVCAR-4 ovarian = test system: OVCAR-4 ovarian
OVCAR-8 ovarian = test system: OVCAR-8 ovarian
PC-3 prostate = test system: PC-3 prostate
RPMI-8226 leukemia = test system: RPMI-8226 leukemia
RXF 393 renal = test system: RXF 393 renal
SF-268 CNS = test system: SF-268 CNS
SF-295 CNS = test system: SF-295 CNS
SF-539 CNS = test system: SF-539 CNS
SK-MEL-28 melanoma = test system: SK-MEL-28 melanoma
SK-MEL-5 melanoma = test system: SK-MEL-5 melanoma
SK-OV-3 ovarian = test system: SK-OV-3 ovarian
SN12C renal = test system: SN12C renal
SNB-19 CNS = test system: SNB-19 CNS
SNB-75 CNS = test system: SNB-75 CNS
SW-620 colon = test system: SW-620 colon
T-47D breast = test system: T-47D breast
TK-10 renal = test system: TK-10 renal
U251 glioblastoma = test system: U251 glioblastoma
UACC-257 melanoma = test system: UACC-257 melanoma
UACC-62 melanoma = test system: UACC-62 melanoma
UO-31 renal = test system: UO-31 renal
OVCAR-5 ovarian = test system: OVCAR-5 ovarian
SR leukemia = test system: SR leukemia

## Cc1ccc2c(=O)c3cccc(CC(=O)O)c3oc2c1C
786-0 renal
  GI50: > 100000 nM
  TGI: > 100000 nM
A498 renal
  GI50: > 100000 nM
  TGI: > 100000 nM
A549 NSCLC
  GI50: > 100000 nM
  TGI: > 100000 nM
ACHN renal
  GI50: > 100000 nM
  TGI: > 100000 nM
BT-549 breast
  GI50: > 100000 nM
  TGI: > 100000 nM
CAKI-1 renal
  GI50: > 100000 nM
  TGI: > 100000 nM
CCRF-CEM leukemia
  GI50: > 100000 nM
  TGI: > 100000 nM
COLO 205 colon
  GI50: > 100000 nM
  TGI: > 100000 nM
DU-145 prostate
  GI50: > 100000 nM
  TGI: > 100000 nM
EKVX NSCLC
  GI50: > 100000 nM
  TGI: > 100000 nM
HCC-2998 colon
  GI50: > 100000 nM
  TGI: > 100000 nM
HCT-116 colon
  GI50: > 100000 nM
  TGI: > 100000 nM
HCT-15 colon
  GI50: > 100000 nM
  TGI: > 100000 nM
HL-60(TB) leukemia
  GI50: > 100000 nM
  TGI: > 100000 nM
HOP-62 NSCLC
  GI50: > 100000 nM
  TGI: > 100000 nM
HOP-92 NSCLC
  GI50: > 100000 nM
  TGI: > 100000 nM
HS 578T breast
  GI50: > 100000 nM
  TGI: > 100000 nM
HT29 colon
  GI50: > 100000 nM
  TGI: > 100000 nM
IGROV1 ovarian
  GI50: > 100000 nM
  TGI: > 100000 nM
K-562 leukemia
  GI50: > 100000 nM
  TGI: > 100000 nM
KM12 colon
  GI50: > 100000 nM
  TGI: > 100000 nM
LOX IMVI melanoma
  GI50: > 100000 nM
  TGI: > 100000 nM
M14 melanoma
  GI50: > 100000 nM
  TGI: > 100000 nM
MALME-3M melanoma
  GI50: > 100000 nM
  TGI: > 100000 nM
MCF7 breast
  GI50: > 100000 nM
  TGI: > 100000 nM
MDA-MB-231 breast
  GI50: > 100000 nM
  TGI: > 100000 nM
MDA-MB-435 melanoma
  GI50: > 100000 nM
  TGI: > 100000 nM
MDA-MB-468 breast
  GI50: > 100000 nM
  TGI: > 100000 nM
MOLT-4 leukemia
  GI50: > 100000 nM
  TGI: > 100000 nM
NCI-H226 lung
  GI50: > 100000 nM
  TGI: > 100000 nM
NCI-H23 lung
  GI50: > 100000 nM
  TGI: > 100000 nM
NCI-H322M lung
  GI50: > 100000 nM
  TGI: > 100000 nM
NCI-H460 NSCLC
  GI50: > 100000 nM
  TGI: > 100000 nM
NCI-H522 lung
  GI50: > 100000 nM
  TGI: > 100000 nM
NCI/ADR-RES ovarian
  GI50: > 100000 nM
  TGI: > 100000 nM
OVCAR-3 ovarian
  GI50: > 100000 nM
  TGI: > 100000 nM
OVCAR-4 ovarian
  GI50: > 100000 nM
  TGI: > 100000 nM
OVCAR-8 ovarian
  GI50: > 100000 nM
  TGI: > 100000 nM
PC-3 prostate
  GI50: > 100000 nM
  TGI: > 100000 nM
RPMI-8226 leukemia
  GI50: > 100000 nM
  TGI: > 100000 nM
RXF 393 renal
  GI50: > 100000 nM
  TGI: > 100000 nM
SF-268 CNS
  GI50: > 100000 nM
  TGI: > 100000 nM
SF-295 CNS
  GI50: > 100000 nM
  TGI: > 100000 nM
SF-539 CNS
  GI50: > 100000 nM
  TGI: > 100000 nM
SK-MEL-28 melanoma
  GI50: > 100000 nM
  TGI: > 100000 nM
SK-MEL-5 melanoma
  GI50: > 100000 nM
  TGI: > 100000 nM
SK-OV-3 ovarian
  GI50: > 100000 nM
  TGI: > 100000 nM
SN12C renal
  GI50: > 100000 nM
  TGI: > 100000 nM
SNB-19 CNS
  GI50: > 100000 nM
  TGI: > 100000 nM
SNB-75 CNS
  GI50: > 100000 nM
  TGI: > 100000 nM
SW-620 colon
  GI50: > 100000 nM
  TGI: > 100000 nM
T-47D breast
  GI50: > 100000 nM
  TGI: > 100000 nM
TK-10 renal
  GI50: > 100000 nM
  TGI: > 100000 nM
U251 glioblastoma
  GI50: > 100000 nM
  TGI: > 100000 nM
UACC-257 melanoma
  GI50: > 100000 nM
  TGI: > 100000 nM
UACC-62 melanoma
  GI50: > 100000 nM
  TGI: > 100000 nM
UO-31 renal
  GI50: > 100000 nM
  TGI: > 100000 nM

## CNC(=O)c1cccc(-c2ccc3c(N4CCOC[C@@H]4C)nc(N4CCOC[C@@H]4C)nc3n2)c1
786-0 renal
  GI50: 348 nM
A498 renal
  GI50: 32.9 nM
  TGI: 374 nM
A549 NSCLC
  GI50: 152 nM
ACHN renal
  GI50: 162 nM
BT-549 breast
  GI50: 213 nM
  TGI: 1360 nM
CAKI-1 renal
  GI50: 214 nM
  TGI: 5520 nM
CCRF-CEM leukemia
  GI50: 197 nM
COLO 205 colon
  GI50: 154 nM
DU-145 prostate
  GI50: 341 nM
EKVX NSCLC
  GI50: 161 nM
  TGI: 1870 nM
HCC-2998 colon
  GI50: 662 nM
HCT-15 colon
  GI50: 187 nM
HL-60(TB) leukemia
  GI50: 1360 nM
HOP-62 NSCLC
  GI50: 269 nM
HOP-92 NSCLC
  GI50: 97.2 nM
  TGI: 1660 nM
HS 578T breast
  GI50: 105 nM
  TGI: 381 nM
HT29 colon
  GI50: 546 nM
IGROV1 ovarian
  GI50: 42.5 nM
  TGI: 284 nM
K-562 leukemia
  GI50: 480 nM
KM12 colon
  GI50: 156 nM
LOX IMVI melanoma
  GI50: 298 nM
  TGI: 1780 nM
M14 melanoma
  GI50: 143 nM
MALME-3M melanoma
  GI50: 19 nM
  TGI: 161 nM
MCF7 breast
  GI50: 59.7 nM
MDA-MB-231 breast
  GI50: 207 nM
MDA-MB-435 melanoma
  GI50: 280 nM
  TGI: 1610 nM
MDA-MB-468 breast
  GI50: 33.2 nM
  TGI: 277 nM
MOLT-4 leukemia
  GI50: 98.7 nM
  TGI: 1040 nM
NCI-H226 lung
  GI50: 182 nM
  TGI: 857 nM
NCI-H23 lung
  GI50: 314 nM
NCI-H322M lung
  GI50: 130 nM
NCI-H460 NSCLC
  GI50: 37.9 nM
NCI-H522 lung
  GI50: 68.6 nM
NCI/ADR-RES ovarian
  GI50: 534 nM
OVCAR-3 ovarian
  GI50: 257 nM
OVCAR-4 ovarian
  GI50: 111 nM
  TGI: 595 nM
OVCAR-5 ovarian
  GI50: 139 nM
OVCAR-8 ovarian
  GI50: 370 nM
PC-3 prostate
  GI50: 71.9 nM
  TGI: 8300 nM
RPMI-8226 leukemia
  GI50: 12.8 nM
  TGI: 40.1 nM
RXF 393 renal
  GI50: 330 nM
SF-268 CNS
  GI50: 433 nM
SF-295 CNS
  GI50: 112 nM
  TGI: 545 nM
SF-539 CNS
  GI50: 305 nM
SK-MEL-28 melanoma
  GI50: 131 nM
  TGI: 1170 nM
SK-MEL-5 melanoma
  GI50: 62 nM
  TGI: 295 nM
SK-OV-3 ovarian
  GI50: 116 nM
  TGI: 1580 nM
SN12C renal
  GI50: 142 nM
  TGI: 8260 nM
SNB-19 CNS
  GI50: 2330 nM
SNB-75 CNS
  GI50: 121 nM
SR leukemia
  GI50: 53.6 nM
  TGI: 239 nM
SW-620 colon
  GI50: 635 nM
T-47D breast
  GI50: 20.4 nM
  TGI: 116 nM
TK-10 renal
  GI50: 260 nM
  TGI: 3830 nM
U251 glioblastoma
  GI50: 637 nM
UACC-257 melanoma
  GI50: 218 nM
  TGI: 958 nM
UACC-62 melanoma
  GI50: 152 nM
  TGI: 727 nM
UO-31 renal
  GI50: 505 nM
  TGI: 7860 nM
